In one experiment the test system is HepG2 cells. Briefly: GS activation: [3H]glucose incorporation into glycogen in HepG2 cells. The experiment is classed as cell-based. To be noted: Homo sapiens, 3 hrs incubation with D-[2-3H]glucose, serum-free low-glucose DMEM, read-out: EC50 for glycogen synthesis. As for the experimental part:
HepG2 cells were obtained from the Japanese Collection of Research Bioresources and were grown in standard culture medium, a low-glucose Dulbecco's modified Eagle's medium (DMEM) containing 10% fetal calf serum supplemented with 100 U/mL penicillin and 100 μg/mL streptomycin, in a humidified and 5% CO2 atmosphere kept at 37° C. The HepG2 cells were harvested with 0.25% trypsin solution containing 1 mM EDTA, and were seeded on 12 well plates at 1×10^5 cells per well. Following a culture for 3 days, the cells were washed once with phosphate buffered saline (PBS), and were incubated with serum-free low-glucose DMEM supplemented with 100 U/mL penicillin and 100 μg/mL streptomycin. Following a culture for 3 hrs, GSK-3 inhibitor at various concentration and 2.5 μCi/mL D-[2-^3H]glucose (New England Nuclear, Boston, Mass., USA) were added to the serum-free low-glucose DMEM. A vehicle control of DMSO (0.3%, final concentration) was also used. Total volume per well of the reaction medium was 1.0 mL of serum-free low-glucose DMEM. After incubation at 37° C. for 3 hrs, medium was aspirated and cells were washed twice with PBS, and were added 0.25 mL of 1 N KOH containing 0.4 mg/mL carrier glycogen. […] [^3H]Glucose incorporation into glycogen was assessed using a liquid scintillation counter (Packard Instrument Co., Meriden, Conn., USA).

The next experiment relates to Male Crlj:CD1 (ICR) mice. Briefly: Glucose tolerance study in fasted ICR mice. The experiment is classed as in vivo. To be noted: 10 mg/kg orally, 30 minutes before oral glucose load (5 g/kg), fasted 7-week-old ICR mice. As for the experimental part:
Male Crlj:CD1 (ICR) mice were obtained from Charles River Laboratories Japan (Yokohama, Japan). All mice were given a standard diet (Clea Japan, Tokyo, Japan) and tap water ad libitum. All institutional guidelines for animal care and use were applied in this study. Test compounds were suspended in 0.3% carbozymethyl-cellulose sodium salt (CMC-Na; Sigma, St. Louis, Mo.). After fasting for 15-17 hours, the test compound (3, 10, 30, 100 or 300 mg/kg) or vehicle (0.3% CMC-Na) was orally administered to 7-week-old ICR mice. Glucose solution (5 g/kg) was orally administered at 30 minutes after test compound treatment. Blood samples were collected from tail vein using capillary tubes containing EDTA-2K before test compound treatment, and at 0, 0.5, 1, and 2 hours after glucose load. The blood samples were centrifuged at 2,500×g for 5 minutes and separated plasma was kept on ice and analyze in the same day. Plasma glucose levels were determined using the glucose CII-test (Wako Pure Chemical Industries, Osaka, Japan). The sum of plasma glucose levels at 0.5 and 1 hr after glucose load was compared to that of vehicle treatment, and results were presented as percent decrease.

Consider `C[C@H]1COc2c(NC3CCCC(c4cccnc4)C3)c(F)c(N)c3c(=O)c(C#N)cn1c23` (stereo in doubt) [Example 9, (3S)-8-amino-9-fluoro-2,3-dihydro-3-methyl-7-oxo-10-[trans-3-(3-pyridyl)cyclohexylamino]-7H-pyrido[1,2,3-de][1,4]benzoxazine-6-carbonitrile], for which, in the experiment on HepG2 cells, the EC50 was no more than 300 nM.
For `C[C@H]1COc2c(N[C@@H]3CC[C@@H](c4ccccn4)C3)c(F)c(N)c3c(=O)c(C#N)cn1c23` [Example 2, (3S)-8-amino-9-fluoro-2,3-dihydro-3-methyl-7-oxo-10-[(1R,3R)-3-(2-pyridyl)cyclopentylamino]-7H-pyrido[1,2,3-de][1,4]benzoxazine-6-carbonitrile], in the experiment with Male Crlj:CD1 (ICR) mice, the “percent decrease of the sum of plasma glucose levels at 0.5 and 1 hr after glucose load vs vehicle” value was determined as 22%.
Take `C[C@H]1COc2c(N[C@H]3CC[C@H](c4cccnc4)CC3)c(F)c(N)c3c(=O)c(C#N)cn1c23` [Example 7, (3S)-8-amino-9-fluoro-2,3-dihydro-3-methyl-7-oxo-10-[trans-4-(3-pyridyl)cyclohexylamino]-7H-pyrido[1,2,3-de][1,4]benzoxazine-6-carbonitrile]: the EC50 in the experiment on HepG2 cells is no more than 300 nM.

For orientation: EC50 means the concentration that produces a half-maximal response.
